A value given as a limit tells only on which side of the number the result lay.

Among the data in patent publication US20090181963A1, “3H-[1,2,3]TRIAZOLO[4,5-D]PYRIMIDINE COMPOUNDS, THEIR USE AS mTOR KINASE AND PI3 KINASE INHIBITORS, AND THEIR [sequence]” (Wyeth, priority 2008, published 2009) are IC50 values, retold here.

The target in assay [1] is PI3 Kinase α (Homo sapiens, UniProt P42336). The assay can be described thus: Fluorescence polarization assay for PI3K (PI3 Kinase α). The following applies: diC8-PI(4,5)P2 substrate, 25 μM ATP, one hour at 25° C. Type of assay: biochemical.
Sequence of PI3 Kinase α (P42336 whole entry): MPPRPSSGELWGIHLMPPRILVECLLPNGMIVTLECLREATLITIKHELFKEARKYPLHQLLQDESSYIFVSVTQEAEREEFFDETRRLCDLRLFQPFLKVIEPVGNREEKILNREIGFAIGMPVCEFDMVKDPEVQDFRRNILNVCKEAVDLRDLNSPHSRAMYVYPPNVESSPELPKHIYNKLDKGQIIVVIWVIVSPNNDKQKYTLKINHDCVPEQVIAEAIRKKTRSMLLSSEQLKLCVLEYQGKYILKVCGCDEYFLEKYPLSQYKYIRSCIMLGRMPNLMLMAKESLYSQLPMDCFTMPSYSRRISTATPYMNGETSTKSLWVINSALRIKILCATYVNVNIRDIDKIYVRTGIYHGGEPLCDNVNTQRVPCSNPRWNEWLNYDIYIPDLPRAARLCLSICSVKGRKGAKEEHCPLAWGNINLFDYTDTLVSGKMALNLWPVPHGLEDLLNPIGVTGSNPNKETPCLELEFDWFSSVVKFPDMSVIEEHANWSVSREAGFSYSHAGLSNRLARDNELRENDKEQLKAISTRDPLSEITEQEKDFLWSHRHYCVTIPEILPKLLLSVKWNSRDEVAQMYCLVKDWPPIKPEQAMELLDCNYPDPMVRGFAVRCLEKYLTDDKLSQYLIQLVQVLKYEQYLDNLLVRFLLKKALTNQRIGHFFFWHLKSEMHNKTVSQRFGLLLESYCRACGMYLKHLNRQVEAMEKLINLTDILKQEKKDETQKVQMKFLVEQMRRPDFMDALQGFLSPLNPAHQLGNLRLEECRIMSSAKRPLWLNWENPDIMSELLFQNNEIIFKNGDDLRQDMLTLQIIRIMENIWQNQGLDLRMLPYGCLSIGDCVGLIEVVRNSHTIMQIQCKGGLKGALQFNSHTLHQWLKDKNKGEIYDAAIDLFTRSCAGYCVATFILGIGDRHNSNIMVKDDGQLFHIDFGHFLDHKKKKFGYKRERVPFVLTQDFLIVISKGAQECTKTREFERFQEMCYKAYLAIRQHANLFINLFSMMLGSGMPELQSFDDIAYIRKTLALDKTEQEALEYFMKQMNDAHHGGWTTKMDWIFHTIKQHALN
Sequence of PI3 Kinase α (P27986 whole entry partner): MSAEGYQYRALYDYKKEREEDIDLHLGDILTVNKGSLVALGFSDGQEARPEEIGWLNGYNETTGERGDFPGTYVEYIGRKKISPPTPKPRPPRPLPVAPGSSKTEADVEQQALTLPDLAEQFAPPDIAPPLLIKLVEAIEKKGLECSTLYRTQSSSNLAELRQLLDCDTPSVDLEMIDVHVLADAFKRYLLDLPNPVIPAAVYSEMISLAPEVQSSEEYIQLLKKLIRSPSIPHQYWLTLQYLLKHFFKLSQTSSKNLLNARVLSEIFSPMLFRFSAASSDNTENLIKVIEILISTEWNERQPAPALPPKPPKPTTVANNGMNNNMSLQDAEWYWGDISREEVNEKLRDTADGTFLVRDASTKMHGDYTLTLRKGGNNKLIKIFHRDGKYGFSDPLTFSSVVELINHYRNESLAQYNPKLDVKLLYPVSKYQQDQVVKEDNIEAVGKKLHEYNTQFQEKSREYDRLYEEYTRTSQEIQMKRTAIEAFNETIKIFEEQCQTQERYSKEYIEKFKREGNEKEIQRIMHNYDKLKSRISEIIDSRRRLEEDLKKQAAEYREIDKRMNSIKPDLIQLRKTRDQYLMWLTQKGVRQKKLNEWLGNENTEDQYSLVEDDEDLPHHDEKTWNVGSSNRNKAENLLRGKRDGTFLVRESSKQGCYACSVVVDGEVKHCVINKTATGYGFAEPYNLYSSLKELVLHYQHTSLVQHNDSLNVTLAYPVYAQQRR
For assay [2], the target named is PI3 Kinase γ (Homo sapiens, UniProt P48736). The assay can be described thus: Fluorescence polarization assay for PI3K (PI3 Kinase γ). Type of assay: biochemical. The following applies: diC8-PI(4,5)P2 substrate, 25 μM ATP, one hour at 25° C.
Sequence of PI3 Kinase γ (P48736 whole entry): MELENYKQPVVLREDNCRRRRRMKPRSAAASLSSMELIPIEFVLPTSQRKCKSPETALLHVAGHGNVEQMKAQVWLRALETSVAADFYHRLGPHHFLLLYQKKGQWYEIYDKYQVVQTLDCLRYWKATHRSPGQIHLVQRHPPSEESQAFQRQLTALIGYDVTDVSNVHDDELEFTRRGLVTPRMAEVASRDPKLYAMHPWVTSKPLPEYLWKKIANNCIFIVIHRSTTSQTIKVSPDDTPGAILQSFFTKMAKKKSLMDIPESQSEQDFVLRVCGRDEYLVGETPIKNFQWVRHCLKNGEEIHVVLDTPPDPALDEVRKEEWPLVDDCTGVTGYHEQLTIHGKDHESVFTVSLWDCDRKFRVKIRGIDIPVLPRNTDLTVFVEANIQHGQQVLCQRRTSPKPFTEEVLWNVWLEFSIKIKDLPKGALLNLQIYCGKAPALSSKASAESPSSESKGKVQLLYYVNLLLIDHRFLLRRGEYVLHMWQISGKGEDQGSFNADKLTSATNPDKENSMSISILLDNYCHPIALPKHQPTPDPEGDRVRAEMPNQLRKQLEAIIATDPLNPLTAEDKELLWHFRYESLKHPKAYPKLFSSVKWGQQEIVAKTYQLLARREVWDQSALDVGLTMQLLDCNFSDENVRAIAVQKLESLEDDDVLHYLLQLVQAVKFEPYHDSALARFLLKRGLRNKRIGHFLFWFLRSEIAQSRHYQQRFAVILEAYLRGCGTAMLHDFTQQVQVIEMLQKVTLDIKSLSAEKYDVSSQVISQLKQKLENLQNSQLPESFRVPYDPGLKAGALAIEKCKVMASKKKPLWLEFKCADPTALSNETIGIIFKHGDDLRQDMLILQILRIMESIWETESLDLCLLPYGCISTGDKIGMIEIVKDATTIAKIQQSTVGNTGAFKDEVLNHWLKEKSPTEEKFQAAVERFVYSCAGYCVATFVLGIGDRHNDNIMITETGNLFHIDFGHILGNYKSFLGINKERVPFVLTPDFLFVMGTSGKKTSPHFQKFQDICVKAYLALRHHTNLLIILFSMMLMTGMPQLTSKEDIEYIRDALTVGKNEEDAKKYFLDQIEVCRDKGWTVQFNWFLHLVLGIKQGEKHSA

Regarding `CCn1nnc2c(N3CCOC[C@@H]3C)nc(-c3ccc(N)cc3)nc21` [Example 67, (S)-4-(3-ethyl-7-(3-methylmorpholino)-3H-[1,2,3]triazolo[4,5-d]pyrimidin-5-yl)aniline], the concentration for half-maximal inhibition (IC50) in assay [1] is 2140 nM; in assay [2], above 10000 nM.
`CCn1nnc2c(N3CCOC[C@@H]3C)nc(-c3ccc(NC(=O)Nc4ccc(CCO)cc4)cc3)nc21` [Example 68, (S)-1-(4-(3-ethyl-7-(3-methylmorpholino)-3H-[1,2,3]triazolo[4,5-d]pyrimidin-5-yl)phenyl)-3-(4-(2-hydroxyethyl)phenyl)urea]: the figures for the IC50 in assay [1] and in assay [2] were 9 nM and 70.3 nM, respectively.
In the same order, the values of `CCn1nnc2c(N3CCOC[C@@H]3C)nc(-c3ccc(NC(=O)Nc4cccs4)cc3)nc21` [Example 69, (S)-1-(4-(3-ethyl-7-(3-methylmorpholino)-3H-[1,2,3]triazolo[4,5-d]pyrimidin-5-yl)phenyl)-3-(thiophen-2-yl)urea] are 8.5 nM and 97.5 nM.
On to `CCn1nnc2c(N3CCOC[C@@H]3C)nc(-c3ccc(NC(=O)Nc4ccc(CO)cc4)cc3)nc21` [Example 70, (S)-1-(4-(3-ethyl-7-(3-methylmorpholino)-3H-[1,2,3]triazolo[4,5-d]pyrimidin-5-yl)phenyl)-3-(4-(hydroxymethyl)phenyl)urea], for which the IC50 was determined as 5.5 nM in assay [1] and 102 nM in assay [2].
On to `CCn1nnc2c(N3CCOC[C@@H]3C)nc(-c3ccc(NC(=O)Nc4ccncc4)cc3)nc21` [Example 71, (S)-1-(4-(3-ethyl-7-(3-methylmorpholino)-3H-[1,2,3]triazolo[4,5-d]pyrimidin-5-yl)phenyl)-3-(pyridin-4-yl)urea], for which the IC50 amounted to 7 nM in assay [1] and 55.5 nM in assay [2].
Turning to `CCn1nnc2c(N3CCOC[C@@H]3C)nc(-c3ccc(NC(=O)Nc4cccnc4)cc3)nc21` [Example 72, (S)-1-(4-(3-ethyl-7-(3-methylmorpholino)-3H-[1,2,3]triazolo[4,5-d]pyrimidin-5-yl)phenyl)-3-(pyridin-3-yl)urea], the IC50 in assay [1] was 8 nM; in assay [2], 88.5 nM.
For the molecule `CCn1nnc2c(N3CCOC[C@@H]3C)nc(-c3ccc(NC(=O)Nc4ccc(OC)cc4)cc3)nc21` [Example 73, (S)-1-(4-(3-ethyl-7-(3-methylmorpholino)-3H-[1,2,3]triazolo[4,5-d]pyrimidin-5-yl)phenyl)-3-(4-methoxyphenyl)urea], the results for the IC50 in assay [1] and in assay [2] were 15.5 nM and 92.5 nM, respectively.
As to `CCn1nnc2c(N3CCOC[C@@H]3C)nc(-c3ccc(NC(=O)Nc4ccc(F)cc4)cc3)nc21` [Example 74, (S)-1-(4-(3-ethyl-7-(3-methylmorpholino)-3H-[1,2,3]triazolo[4,5-d]pyrimidin-5-yl)phenyl)-3-(4-fluorophenyl)urea], the IC50 in assay [1] was 9.5 nM; in assay [2], 97 nM.
Consider `CCn1nnc2c(N3CCOC[C@@H]3C)nc(-c3ccc(NC(=O)Nc4ccc(C#N)cc4)cc3)nc21` [Example 75, (S)-1-(4-cyanophenyl)-3-(4-(3-ethyl-7-(3-methylmorpholino)-3H-[1,2,3]triazolo[4,5-d]pyrimidin-5-yl)phenyl)urea], for which the 50% inhibitory concentration (IC50) in assay [1] is 13.5 nM; in assay [2], 92.5 nM.
In the same order, the values of `CCn1nnc2c(N3CCOC[C@@H]3C)nc(-c3ccc(NC(=O)Nc4ccc(N5CCN(C)CC5)cc4)cc3)nc21` [Example 76, (S)-1-(4-(3-ethyl-7-(3-methylmorpholino)-3H-[1,2,3]triazolo[4,5-d]pyrimidin-5-yl)phenyl)-3-(4-(4-methylpiperazin-1-yl)phenyl)urea] are 5 nM and 32 nM.
Take `Nc1ccc(-c2nc(N3CCOCC3)c3nnn(C4CC4)c3n2)cc1` [Example 77, 4-(3-cyclopropyl-7-morpholino-3H-[1,2,3]triazolo[4,5-d]pyrimidin-5-yl)aniline]: the values for the IC50 in assay [1] and in assay [2] were 1840 nM and 8000 nM, respectively.
With `O=C(Nc1ccncc1)Nc1ccc(-c2nc(N3CCOCC3)c3nnn(C4CC4)c3n2)cc1` [Example 78, 1-(4-(3-cyclopropyl-7-morpholino-3H-[1,2,3]triazolo[4,5-d]pyrimidin-5-yl)phenyl)-3-(pyridin-4-yl)urea], the IC50 was determined as 6 nM in assay [1] and 13.5 nM in assay [2].
With `O=C(Nc1ccc(-c2nc(N3CCOCC3)c3nnn(C4CC4)c3n2)cc1)Nc1cccnc1` [Example 79, 1-(4-(3-cyclopropyl-7-morpholino-3H-[1,2,3]triazolo[4,5-d]pyrimidin-5-yl)phenyl)-3-(pyridin-3-yl)urea], the concentration for half-maximal inhibition (IC50) in assay [1] was found to be 7 nM; in assay [2], 34 nM.
`O=C(Nc1ccc(-c2nc(N3CCOCC3)c3nnn(C4CC4)c3n2)cc1)Nc1cccs1` [Example 80, 1-(4-(3-cyclopropyl-7-morpholino-3H-[1,2,3]triazolo[4,5-d]pyrimidin-5-yl)phenyl)-3-(thiophen-2-yl)urea]: the figures for the IC50 in assay [1] and in assay [2] were 3 nM and 19.5 nM, respectively.
On to `CC(C)n1nnc2c(N3CCOCC3)nc(-c3ccc(N)cc3)nc21` [Example 81, 4-(3-isopropyl-7-morpholin-4-yl-3H-[1,2,3]triazolo[4,5-d]pyrimidin-5-yl)-phenylamine], for which the half-inhibitory concentration (IC50) turned out to be 1030 nM in assay [1] and 4630 nM in assay [2].
`CC(C)n1nnc2c(N3CCOCC3)nc(-c3ccc(NC(=O)Nc4ccncc4)cc3)nc21` [Example 82, 1-[4-(3-isopropyl-7-morpholin-4-yl-3H-[1,2,3]triazolo[4,5-d]pyrimidin-5-yl)-phenyl]-3-pyridin-4-yl-urea]: the concentration for half-maximal inhibition (IC50) is 5 nM in assay [1] and 21.5 nM in assay [2].
For the molecule `CC(C)n1nnc2c(N3CCOCC3)nc(-c3ccc(NC(=O)Nc4cccnc4)cc3)nc21` [Example 83, 1-[4-(3-isopropyl-7-morpholin-4-yl-3H-[1,2,3]triazolo[4,5-d]pyrimidin-5-yl)-phenyl]-3-pyridin-3-yl-urea], the figures for the IC50 in assay [1] and in assay [2] were 10.5 nM and 48.5 nM, respectively.
Take `CC(C)n1nnc2c(N3CCOCC3)nc(-c3ccc(NC(=O)Nc4ccc(CO)cc4)cc3)nc21` [Example 84, 1-(4-Hydroxymethyl-phenyl)-3-[4-(3-isopropyl-7-morpholin-4-yl-3H-[1,2,3]triazolo[4,5-d]pyrimidin-5-yl)-phenyl]-urea]: the concentration for half-maximal inhibition (IC50) in assay [1] was found to be 3 nM; in assay [2], 34.5 nM.
In the case of `CC(C)n1nnc2c(N3CCOCC3)nc(-c3ccc(NC(=O)Nc4ccc(N5CCOCC5)cc4)cc3)nc21` [Example 85, 1-[4-(3-Isopropyl-7-morpholin-4-yl-3H-[1,2,3]triazolo[4,5-d]pyrimidin-5-yl)-phenyl]-3-(4-morpholin-4-yl-phenyl)-urea], the results for the IC50 in assay [1] and in assay [2] were 25 nM and 78 nM, respectively.
As for `CC(C)n1nnc2c(N3CCOCC3)nc(-c3ccc(NC(=O)Nc4ccc(N(C)C)cc4)cc3)nc21` [Example 86, 1-(4-dimethylamino-phenyl)-3-[4-(3-isopropyl-7-morpholin-4-yl-3H-[1,2,3]triazolo[4,5-d]pyrimidin-5-yl)-phenyl]-urea], the values for the IC50 in assay [1] and in assay [2] were 23.5 nM and 69 nM, respectively.
Regarding `CC(C)n1nnc2c(N3CCOCC3)nc(-c3ccc(NC(=O)Nc4ccc(F)cc4)cc3)nc21` [Example 87, 1-(4-fluoro-phenyl)-3-[4-(3-isopropyl-7-morpholin-4-yl-3H-[1,2,3]triazolo[4,5-d]pyrimidin-5-yl)-phenyl]-urea], the results for the IC50 in assay [1] and in assay [2] were 13.5 nM and 69.5 nM, respectively.
